According to patent US9708314B2, “Heterocyclic amide compound” (NISSAN CHEMICAL INDUSTRIES, LTD., priority 2013, dated 2017):

Tests used:
Assay type in all cases: in vivo
Abutilon theophrasti = experiment: Test Example 4: herbicidal effect by application to foliage (diluvial soil, plastic box); details: application to foliage, application herbicide amount 320 g/ha
Procedure, shortened: (§1)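 Seeds sown in sterilized diluvial soil, covered ~1.5 cm, grown 14 days in greenhouse at 25° C. to 30° C. Emulsion formulation diluted in water to set rate (g/ha) and sprayed onto stems and leaves. Effect scored visually 3 weeks later on 0–5 scale (5 = ≥90% herbicidal ratio, 0 = ≤5%).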

Setaria viridis = experiment: as above; details: application to foliage, application herbicide amount 320 g/ha
Procedure, shortened: as §1

Lolium multiflorum Lam. = experiment: as above; details: application to foliage, application herbicide amount 320 g/ha
Procedure, shortened: as §1

Chenopodium album = experiment: as above; details: application to foliage, application herbicide amount 320 g/ha
Procedure, shortened: as §1

[1] = tested on: Echinochloa crus-galli var. crus-galli; experiment: as above; details: application to foliage, application herbicide amount 320 g/ha
Procedure, shortened: as §1

Alopecurus myosuroides = experiment: as above; details: application to foliage, application herbicide amount 320 g/ha
Procedure, shortened: as §1

Veronica persica = experiment: as above; details: application to foliage, application herbicide amount 320 g/ha
Procedure, shortened: as §1

Apera spica-venti. = experiment: as above; details: application to foliage, application herbicide amount 320 g/ha
Procedure, shortened: as §1

Avena fatua = experiment: as above; details: application to foliage, application herbicide amount 320 g/ha
Procedure, shortened: as §1

Zea mays = experiment: Test Example 4: effect on crop by application to foliage (diluvial soil, plastic box); details: application to foliage, application herbicide amount 320 g/ha
Procedure, shortened: as §1

[2] = tested on: directly sowed Oryza sativa; experiment: as above; details: application to foliage, application herbicide amount 320 g/ha
Procedure, shortened: as §1

Glycine max = experiment: as above; details: application to foliage, application herbicide amount 320 g/ha
Procedure, shortened: as §1

Triticum aestivum = experiment: as above; details: application to foliage, application herbicide amount 320 g/ha
Procedure, shortened: as §1

[3] = tested on: Beta vulgaris ssp. vulgaris; experiment: as above; details: application to foliage, application herbicide amount 320 g/ha
Procedure, shortened: as §1

Brassica campestris L. = experiment: as above; details: application to foliage, application herbicide amount 320 g/ha
Procedure, shortened: as §1

Scirpus juncoides = experiment: Test Example 2: herbicidal activity, application during weed generation in submerged conditions; details: Eighteenth Table; application herbicide amount 320 g/ha
Procedure, shortened: (§2)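 Scored three weeks post-application on a 0–5 scale (5: ≥90% herbicidal ratio, almost withered; 0: ≤5%). Plants raised from mixed-sown seed in submerged alluvial soil (4 cm water), 25–30 °C greenhouse; water-diluted emulsion applied onto water surface at one- to two-leaf stage, dose in g/ha.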

Monochoria vaginalis = experiment: as above; details: Eighteenth Table; application herbicide amount 320 g/ha
Procedure, shortened: as §2

[4] = tested on: Echinochloa oryzacola Vasing.; experiment: as above; details: Eighteenth Table; application herbicide amount 320 g/ha
Procedure, shortened: as §2

| SMILES | M (Abutilon theophrasti) herbicidal effect (Abutilon theophrasti) | G (Setaria viridis) herbicidal effect (Setaria viridis) | K (Lolium multiflorum Lam.) herbicidal effect (Lolium multiflorum Lam.) | O (Chenopodium album) herbicidal effect (Chenopodium album) | H (Echinochloa crus-galli var. crus-galli) herbicidal effect [1] | J (Alopecurus myosuroides) herbicidal effect (Alopecurus myosuroides) | R (Veronica persica) herbicidal effect (Veronica persica) | L (Apera spica-venti.) herbicidal effect (Apera spica-venti.) | I (Avena fatua) herbicidal effect (Avena fatua) | b (Zea mays) effect on crop (Zea mays) | d (directly sowed Oryza sativa) effect on crop [2] | c (Glycine max) effect on crop (Glycine max) | e (Triticum aestivum) effect on crop (Triticum aestivum) | f (Beta vulgaris ssp. vulgaris) effect on crop [3] | g (Brassica campestris L.) effect on crop (Brassica campestris L.) | B (Scirpus juncoides) herbicidal ratio grade (Scirpus juncoides) | C (Monochoria vaginalis) herbicidal ratio grade (Monochoria vaginalis) | A (Echinochloa oryzicola Vasing.) herbicidal ratio grade [4] |
| --- | --- | --- | --- | --- | --- | --- | --- | --- | --- | --- | --- | --- | --- | --- | --- | --- | --- | --- |
| Cc1nnc(NC(=O)c2ccc(C(F)(F)F)n3c(C4=NOC(C)(C)C4)nnc23)o1 [1-029] | 5 (Herbicidal ratio of 90% or more (almost completely withered)) | 4 (Herbicidal ratio of 70% or more and less than 90%) | 1 (Herbicidal ratio of 5% or more and less than 20%) | 5 (Herbicidal ratio of 90% or more (almost completely withered)) | 5 (Herbicidal ratio of 90% or more (almost completely withered)) | 1 (Herbicidal ratio of 5% or more and less than 20%) | 5 (Herbicidal ratio of 90% or more (almost completely withered)) | 1 (Herbicidal ratio of 5% or more and less than 20%) | 1 (Herbicidal ratio of 5% or more and less than 20%) | 3 (Herbicidal ratio of 40% or more and less than 70%) | 3 (Herbicidal ratio of 40% or more and less than 70%) | 1 (Herbicidal ratio of 5% or more and less than 20%) | 1 (Herbicidal ratio of 5% or more and less than 20%) | 5 (Herbicidal ratio of 90% or more (almost completely withered)) | 1 (Herbicidal ratio of 5% or more and less than 20%) | 2 (Herbicidal ratio of 20% or more and less than 40%) | 3 (Herbicidal ratio of 40% or more and less than 70%) | 3 (Herbicidal ratio of 40% or more and less than 70%) |
| CSCc1nnc2c(C(=O)Nc3nnc(C)o3)ccc(C(F)(F)F)n12 [1-030] | 5 (Herbicidal ratio of 90% or more (almost completely withered)) | 5 (Herbicidal ratio of 90% or more (almost completely withered)) | 3 (Herbicidal ratio of 40% or more and less than 70%) | 5 (Herbicidal ratio of 90% or more (almost completely withered)) | 5 (Herbicidal ratio of 90% or more (almost completely withered)) | 3 (Herbicidal ratio of 40% or more and less than 70%) | 4 (Herbicidal ratio of 70% or more and less than 90%) | 4 (Herbicidal ratio of 70% or more and less than 90%) | 4 (Herbicidal ratio of 70% or more and less than 90%) | 3 (Herbicidal ratio of 40% or more and less than 70%) | 5 (Herbicidal ratio of 90% or more (almost completely withered)) | 2 (Herbicidal ratio of 20% or more and less than 40%) | 3 (Herbicidal ratio of 40% or more and less than 70%) | 5 (Herbicidal ratio of 90% or more (almost completely withered)) | 4 (Herbicidal ratio of 70% or more and less than 90%) | 3 (Herbicidal ratio of 40% or more and less than 70%) | 3 (Herbicidal ratio of 40% or more and less than 70%) | 4 (Herbicidal ratio of 70% or more and less than 90%) |
| Cc1nnc(NC(=O)c2ccc(C(F)(F)F)n3c(CSCC(F)(F)F)nnc23)o1 [1-031] | 5 (Herbicidal ratio of 90% or more (almost completely withered)) | 4 (Herbicidal ratio of 70% or more and less than 90%) | 1 (Herbicidal ratio of 5% or more and less than 20%) | 5 (Herbicidal ratio of 90% or more (almost completely withered)) | 5 (Herbicidal ratio of 90% or more (almost completely withered)) | 1 (Herbicidal ratio of 5% or more and less than 20%) | 4 (Herbicidal ratio of 70% or more and less than 90%) | 1 (Herbicidal ratio of 5% or more and less than 20%) | 2 (Herbicidal ratio of 20% or more and less than 40%) | 0 (Herbicidal ratio of 5% or less (almost no effect)) | 3 (Herbicidal ratio of 40% or more and less than 70%) | 1 (Herbicidal ratio of 5% or more and less than 20%) | 1 (Herbicidal ratio of 5% or more and less than 20%) | 3 (Herbicidal ratio of 40% or more and less than 70%) | 3 (Herbicidal ratio of 40% or more and less than 70%) | 2 (Herbicidal ratio of 20% or more and less than 40%) | 2 (Herbicidal ratio of 20% or more and less than 40%) | 3 (Herbicidal ratio of 40% or more and less than 70%) |
| CCSc1nnc2c(C(=O)Nc3nnc(C)o3)ccc(C(F)(F)F)n12 [1-032] | 5 (Herbicidal ratio of 90% or more (almost completely withered)) | 5 (Herbicidal ratio of 90% or more (almost completely withered)) | 1 (Herbicidal ratio of 5% or more and less than 20%) | 5 (Herbicidal ratio of 90% or more (almost completely withered)) | 5 (Herbicidal ratio of 90% or more (almost completely withered)) | 1 (Herbicidal ratio of 5% or more and less than 20%) | 4 (Herbicidal ratio of 70% or more and less than 90%) | 2 (Herbicidal ratio of 20% or more and less than 40%) | 2 (Herbicidal ratio of 20% or more and less than 40%) | 0 (Herbicidal ratio of 5% or less (almost no effect)) | 4 (Herbicidal ratio of 70% or more and less than 90%) | 0 (Herbicidal ratio of 5% or less (almost no effect)) | 1 (Herbicidal ratio of 5% or more and less than 20%) | 5 (Herbicidal ratio of 90% or more (almost completely withered)) | 4 (Herbicidal ratio of 70% or more and less than 90%) | 3 (Herbicidal ratio of 40% or more and less than 70%) | 3 (Herbicidal ratio of 40% or more and less than 70%) | 4 (Herbicidal ratio of 70% or more and less than 90%) |
| Cc1nnc(NC(=O)c2ccc(C(F)(F)F)n3c(SC(C)C)nnc23)o1 [1-033] | 5 (Herbicidal ratio of 90% or more (almost completely withered)) | 5 (Herbicidal ratio of 90% or more (almost completely withered)) | 1 (Herbicidal ratio of 5% or more and less than 20%) | 5 (Herbicidal ratio of 90% or more (almost completely withered)) | 5 (Herbicidal ratio of 90% or more (almost completely withered)) | 1 (Herbicidal ratio of 5% or more and less than 20%) | 5 (Herbicidal ratio of 90% or more (almost completely withered)) | 2 (Herbicidal ratio of 20% or more and less than 40%) | 2 (Herbicidal ratio of 20% or more and less than 40%) | 0 (Herbicidal ratio of 5% or less (almost no effect)) | 3 (Herbicidal ratio of 40% or more and less than 70%) | 2 (Herbicidal ratio of 20% or more and less than 40%) | 1 (Herbicidal ratio of 5% or more and less than 20%) | 5 (Herbicidal ratio of 90% or more (almost completely withered)) | 4 (Herbicidal ratio of 70% or more and less than 90%) | 4 (Herbicidal ratio of 70% or more and less than 90%) | 3 (Herbicidal ratio of 40% or more and less than 70%) | 4 (Herbicidal ratio of 70% or more and less than 90%) |
